Measurements published in patent US5118686A, “Phenylpyrimidones” (Smith Kline & French Laboratories Limited, priority 1989, dated 1992).

Tests used:
[1] = system: U46619-induced bronchoconstriction; assay: Bronchodilatation - In vivo (inhibition of U46619-induced bronchoconstriction in anaesthetised guinea-pigs); set-up: species or system guinea-pig (Dunkin Hartley strain, male); conditions: Cavia porcellus, iv; i.v. bolus; U46619 infused i.v. 2.5 nmol/min; peak inhibition; read-out: BD50 (dose of compound required to reduce the U46619-induced bronchoconstriction by 50%)
Protocol: Male guinea-pigs of the Dunkin Hartley strain (500-600g) were anaesthetised with Sagatal (pentobarbital sodium) (60 mg/kg). Airway resistance was measured using a modification of the classical Konzett-Rossler technique (J. pharm. Methods, 13, 309-315, 1985). U46619 (9,11-methanoepoxy-PGH2) was infused i.v. at a rate of 2.5 nmol/min, this produced a steady state of bronchoconstriction (approximately 120% increase from basal airway resistance). The compound under test was administered by i.v. bolus injection, and the subsequent peak inhibition of bronchoconstriction recorded.

[2] = system: spontaneous colonic activity (distal colon segment); assay: Inhibition of spontaneous colonic activity - in vitro; set-up: species or system guinea-pig (male albino); conditions: Cavia porcellus; isolated distal colon, Krebs solution, 37° C.; read-out: IC50 (concentration of compound required to reduce spontaneous colonic activity by 50%)
From the text: Male albino guinea-pigs (300-400g) were killed by a blow to the back of the head and exsanguinated. A 2cm long segment of the proximal part of the hypogastric loop of the distal colon was rapidly dissected out and placed in oxygenated (95% O2, 5% CO2) modified warm Krebs solution. The tissue was cleaned out with Krebs and the adjoining mesentery discarded. Cotton was then tied to each end and the colon was attached to a tissue holder in an organ bath containing modified oxygenated Krebs solution at 37° C. The other end of the tissue was tied to an isometric transducer and placed under 1 g tension. Force developed by the muscle was detected by the transducer, and recorded on a multitrace pen recorder. Spontaneous colonic activity, as assessed by the contraction distance over a five minute period, was subjected to computer analysis.
The tissues were allowed to settle at a resting tension of 1 g for 1 hour, during which time they were washed at 15 minute intervals. Three samples of pre-dose activity were taken and averaged. The tissues were then dosed and two samples of post-dose activity were taken. The lowest value was used to calculate the percentage relaxation, and log dose response curves were constructed. The tissues were washed 10 minutes after dosing and left for 15 minutes to settle prior to the next control period.
The concentration of compound required to reduce spontaneous colonic activity by 50% is given as the IC50.

Row | SMILES | IC50 [2] [µM] | ED50 [1] [µmol/kg]
1 | CCCOc1ccccc1-c1nc(O)cc(CC)n1 [Example 18, 4-Ethyl-6-hydroxy-2-(2-propoxyphenyl)pyrimidine] | 3.3 | 9.7
2 | CCCOc1ccccc1-c1nc(O)cc(C#N)n1 [Example 16, 4-cyano-6-hydroxy-2-(2-propoxyphenyl)pyrimidine] |  | 6.03

The next lines start with results.

Row | IC50 [2] [µM] | SMILES | ED50 [1] [µmol/kg]
3 | 3.7 | CCCOc1ccccc1-c1nc(O)cc(C(=O)NCC)n1 [Example 21, N-Ethyl 6-hydroxy-2-(2-propoxyphenyl)pyrimidine-4-carboxamide] | 
4 | 0.75 | CCCOc1ccccc1-c1nc(O)cc(C(N)=O)n1 [Example 15, 6-Hydroxy-2-(2-propoxyphenyl)pyrimidine-4-carboxamide] | 
5 | 2.4 | CCCOc1ccccc1-c1nc(NC(=O)NC)cc(=O)[nH]1 [Example 5, 6-N'-methylureido-2-(2-propoxyphenyl)pyrimidin-4[3H]-one] | 8.34
